# Assays:
# [1] = Behavioral effects (sleeping) after i.p. injection in mice; type: in vivo, mouse
# histamine H3 -receptor = test: Reversal of the soporific effect of (R)α-methylhistamine in mice; type: in vivo, mouse
# Protocol: The overall strategy to show central nervous system antagonist activity was to challenge effects of the agonist (R)α-methylhistamine. Therefore, the first objective was to establish a dose response curve for behavioral effects of (R)α-methylhistamine. Male albino CF-1 mice weighing 20-30 g were used. Saline or (R)α-methylhistamine in saline was injected i.p. in a volume ≤0.4 ml. […] Animals were scored for the presence (1) or absence (0) of the behavior and the results were reported as the accumulated score for a 30 minute period (maximum score=9).
# To assess the effects of antagonists, they were administered with the (R)α-methylhistamine in saline.
# [2] = Toxicity observed in testing to date; type: in vivo; conditions: all testing to date, even at high doses
# [3] = system: adenosine, excitory or inhibitory amino acid, dopamine, serotonin, or a broad range of petidergic receptors, or to ion channel proteins, peptide factor or …; test: NOVASCREEN receptor selectivity study, panel as a whole; type: binding; conditions: 10^-5 M
# [4] = system: H3 receptors in the cortex; test: Blood-brain barrier penetration by ex vivo binding of [3H]-Nα-methylhistamine to cortex homogenate; type: in vivo, rat
# Protocol: Blood-brain barrier penetration in rats was assessed by an ex vivo binding procedure. Young adult male Long-Evans rats were injected i.p. with saline or H3 antagonists in saline. At various times after injection animals were sacrificed, the cortex was removed, homogenized in 50 mM Na/K-phosphate buffer, pH 7.4, and the binding of 1 nM [^3 H]-N^α -methylhistamine was measured using 400 μg protein of the homogenate. Nonspecific binding was accounted for by the inclusion of excess thioperamide in some samples. Under these conditions, the binding was approximately 90% specific.
# Substance K = test: NOVASCREEN receptor selectivity assay; type: binding; conditions: 10^-5 M
# Excerpt: (§1) represent the average of duplicate tubes at each of the concentrations
# Adenosine = test: NOVASCREEN receptor selectivity assay; type: binding; conditions: 10^-5 M
# Excerpt: as §1
# [5] = system: Protein Kinase C (Phorbol Ester); test: NOVASCREEN receptor selectivity assay; type: binding; conditions: 10^-5 M
# Excerpt: as §1
# NGF = test: NOVASCREEN receptor selectivity assay; type: binding; conditions: 10^-5 M
# Excerpt: as §1
# Glycine (excitatory) = test: NOVASCREEN receptor selectivity assay; type: binding; conditions: 10^-5 M
# Excerpt: as §1
# Substance P = test: NOVASCREEN receptor selectivity assay; type: binding; conditions: 10^-5 M
# Excerpt: as §1
# Angiotensin = test: NOVASCREEN receptor selectivity assay; type: binding; conditions: 10^-5 M
# Excerpt: as §1
# MK-801 = test: NOVASCREEN receptor selectivity assay; type: binding; conditions: 10^-5 M
# Excerpt: as §1
# NMDA = test: NOVASCREEN receptor selectivity assay; type: binding; conditions: 10^-5 M
# Excerpt: as §1
# CCK Peripheral = test: NOVASCREEN receptor selectivity assay; type: binding; conditions: 10^-5 M
# Excerpt: as §1
# Glycine (Inhibitory) = test: NOVASCREEN receptor selectivity assay; type: binding; conditions: 10^-5 M
# Excerpt: as §1
# Serotonin 2 = test: NOVASCREEN receptor selectivity assay; type: binding; conditions: 10^-5 M
# Excerpt: as §1
# VIP = test: NOVASCREEN receptor selectivity assay; type: binding; conditions: 10^-5 M
# Excerpt: as §1
# NPY = test: NOVASCREEN receptor selectivity assay; type: binding; conditions: 10^-5 M
# Excerpt: as §1
# Arg-Vasopressin V1 = test: NOVASCREEN receptor selectivity assay; type: binding; conditions: 10^-5 M
# Excerpt: as §1
# Potassium channel = test: NOVASCREEN receptor selectivity assay; type: binding; conditions: 10^-5 M
# Excerpt: as §1
# GABAB = test: NOVASCREEN receptor selectivity assay; type: binding; conditions: 10^-5 M
# Excerpt: as §1
# Kainate = test: NOVASCREEN receptor selectivity assay; type: binding; conditions: 10^-5 M
# Excerpt: as §1
# GABAA = test: NOVASCREEN receptor selectivity assay; type: binding; conditions: 10^-5 M
# Excerpt: as §1
# Inositol Triphosphate = test: NOVASCREEN receptor selectivity assay; type: binding; conditions: 10^-5 M
# Excerpt: as §1
# EGF = test: NOVASCREEN receptor selectivity assay; type: binding; conditions: 10^-5 M
# Excerpt: as §1
# [6] = system: Calcium channel (Nifedipine); test: NOVASCREEN receptor selectivity assay; type: binding; conditions: 10^-5 M
# Excerpt: as §1
# [7] = system: Adenylate Cyclase (Forskolin); test: NOVASCREEN receptor selectivity assay; type: binding; conditions: 10^-5 M
# Excerpt: as §1
# Bombesin = test: NOVASCREEN receptor selectivity assay; type: binding; conditions: 10^-5 M
# Excerpt: as §1
# PCP = test: NOVASCREEN receptor selectivity assay; type: binding; conditions: 10^-5 M
# Excerpt: as §1
# ANF (rat) = test: NOVASCREEN receptor selectivity assay; type: binding; conditions: 10^-5 M
# Excerpt: as §1
# Dopamine 2 = test: NOVASCREEN receptor selectivity assay; type: binding; conditions: 10^-5 M
# Excerpt: as §1
# Chloride channel = test: NOVASCREEN receptor selectivity assay; type: binding; conditions: 10^-5 M
# Excerpt: as §1
# [8] = system: Quisqualate (Excitatory Amino Acids); test: NOVASCREEN receptor selectivity assay; type: binding; conditions: 10^-5 M
# Excerpt: as §1
# Somatostatin = test: NOVASCREEN receptor selectivity assay; type: binding; conditions: 10^-5 M
# Excerpt: as §1
# Neurotensin = test: NOVASCREEN receptor selectivity assay; type: binding; conditions: 10^-5 M
# Excerpt: as §1
# Serotonin 1 = test: NOVASCREEN receptor selectivity assay; type: binding; conditions: 10^-5 M
# Excerpt: as §1
# Dopamine 1 = test: NOVASCREEN receptor selectivity assay; type: binding; conditions: 10^-5 M
# Excerpt: as §1
# Benzodiazephine = test: NOVASCREEN receptor selectivity assay; type: binding; conditions: 10^-5 M
# Excerpt: as §1
# CCK Central = test: NOVASCREEN receptor selectivity assay; type: binding; conditions: 10^-5 M
# Excerpt: as §1
# [9] = system: Calcium channel (w-Conotoxin); type: binding; conditions: 10^-5 M
# histamine H3 receptors = conditions: cited from earlier work
# [10] = animal toxicity studies or clinical usage; cited from earlier work
# [11] = peptic ulcer patients; cited from earlier work
# [12] = dogs, 162 mg/kg/day, repeated dose; cited from earlier work
structure (smiles),measurement,setting,value
C[C@@H](N)Cc1c[nH]cn1 [(R)α-methylhistamine],sleeping,"[1]; i.p. 15 to 35 mg/kg, one hour after injection, also evident at 30 minutes",dose-dependent (range of 15 to 35 mg/kg) increase in sleeping
"O=C(CCCCC1CCCCC1)N1CCC(c2c[nH]cn2)CC1 [Compound 1, 4-(1-CYCLOHEXYLVALEROYL-4-PIPERIDYL) 1H-IMIDAZOLE]",inhibition of soporific effect of (R)α-methylhistamine,histamine H3 -receptor; agonist 25 mg/kg,inhibited the soporific effect
same,toxicity,[2],no toxicity
same,significant binding to other receptors,[3],no significant binding
same,blood-brain barrier penetration,"[4]; i.p. 50 and 70 mg/kg, one hour after injection",penetrates the blood-brain barrier
same,Initial Percent Inhibition (Average; N = 2),Substance K,29.2%
same,Initial Percent Inhibition (Average; N = 2),Adenosine,-3.0%
same,Initial Percent Inhibition (Average; N = 2),[5],0.9%
same,Initial Percent Inhibition (Average; N = 2),NGF,17.1%
same,Initial Percent Inhibition (Average; N = 2),Glycine (excitatory),1.8%
same,Initial Percent Inhibition (Average; N = 2),Substance P,20.0%
same,Initial Percent Inhibition (Average; N = 2),Angiotensin,6.5%
same,Initial Percent Inhibition (Average; N = 2),MK-801,-8.6%
same,Initial Percent Inhibition (Average; N = 2),NMDA,-4.5%
same,Initial Percent Inhibition (Average; N = 2),CCK Peripheral,6.9%
same,Initial Percent Inhibition (Average; N = 2),Glycine (Inhibitory),17.4%
same,Initial Percent Inhibition (Average; N = 2),Serotonin 2,10.5%
same,Initial Percent Inhibition (Average; N = 2),VIP,17.1%
same,Initial Percent Inhibition (Average; N = 2),NPY,-8.7%
same,Initial Percent Inhibition (Average; N = 2),Arg-Vasopressin V1,10.1%
same,Initial Percent Inhibition (Average; N = 2),Potassium channel,7.7%
same,Initial Percent Inhibition (Average; N = 2),GABAB,0.0%
same,Initial Percent Inhibition (Average; N = 2),Kainate,42.1%
same,Initial Percent Inhibition (Average; N = 2),GABAA,0.6%
same,Initial Percent Inhibition (Average; N = 2),Inositol Triphosphate,9.2%
same,Initial Percent Inhibition (Average; N = 2),EGF,18.1%
same,Initial Percent Inhibition (Average; N = 2),[6],8.1%
same,Initial Percent Inhibition (Average; N = 2),[7],2.1%
same,Initial Percent Inhibition (Average; N = 2),Bombesin,-5.5%
same,Initial Percent Inhibition (Average; N = 2),PCP,9.7%
same,Initial Percent Inhibition (Average; N = 2),ANF (rat),0.1%
same,Initial Percent Inhibition (Average; N = 2),Dopamine 2,3.5%
same,Initial Percent Inhibition (Average; N = 2),Chloride channel,-3.4%
same,Initial Percent Inhibition (Average; N = 2),[8],-1.8%
same,Initial Percent Inhibition (Average; N = 2),Somatostatin,4.1%
same,Initial Percent Inhibition (Average; N = 2),Neurotensin,-10.5%
same,Initial Percent Inhibition (Average; N = 2),Serotonin 1,-3.6%
same,Initial Percent Inhibition (Average; N = 2),Dopamine 1,6.4%
same,Initial Percent Inhibition (Average; N = 2),Benzodiazephine,2.7%
same,Initial Percent Inhibition (Average; N = 2),CCK Central,18.6%
same,Initial Percent Inhibition (Average; N = 2),[9],1.9%
O=C(CCCCC1CCCCC1)N1CCC(c2c[nH]cn2)CC1 [Compound 2016],reversal of soporific effect of R(-)-alphamethylhistamine,histamine H3 -receptor; both drugs administered peripherally,reverses the soporific effect
S=C(NC1CCCCC1)N1CCC(c2cnc[nH]2)CC1 [Thioperamide],inhibition of soporific effect of (R)α-methylhistamine,histamine H3 -receptor; agonist 30 mg/kg,able to inhibit the soporific effect
same,binding of [3H]-Nα-methylhistamine to cortical H3 receptors / blood-brain barrier penetration,"[4]; i.p. 2, 5, and 10 mg/kg, 15 min after injection",decreased the binding of [^3 H]-Nα-methylhistamine to H3 receptors in the cortex
same,behavior,"[1]; thioperamide alone, without agonist","very active, exhibiting normal behaviors"
same,dose required to inhibit histamine release from the brain,histamine H3 receptors; rats,relatively high doses are required in vivo
same,blood-brain-barrier penetration,histamine H3 receptors; suggested by Ganellin et al.,poor penetration through the blood-brain-barrier
CN/C(=N/CCSCc1nc[nH]c1C)NC#N [cimetidine],granulocytopenia or other side effects,[10],"did not cause granulocytopenia, or any other side effects"
C/N=C(\S)NCCSCc1[nH]cnc1C [metiamide],granulocytopenia,[11],low incidence of granulocytopenia
same,agranulocytosis,[12],incidences of agranulocytosis
